Like-named read-outs stand apart in the source and are kept apart here.
Legend:
Supercoiled plasmid = assay: In vitro DNA nicking assay; format: biochemical, E. coli; settings: 10 μM CuCl2, 3 hours at room temperature (21° C.) in the dark
Method: The capacity of rCAM compounds to cause DNA damage was evaluated using an in vitro DNA nicking assay. Specifically, the double stranded DNA (dsDNA) nicking activity of exemplary rCAM DP41-0012 was compared to CAM compounds bersacapavir and NVR-3-778, and DMSO controls.
Supercoiled plasmid, the substrate for this assay, was purified from E. coli, using a Qiagen miniprep kit. A “master mix” of 3 ng/μl Miniprep DNA, 10 μM CuCl2, 20 mM TrisHCl pH7.5 was prepared. Samples included 99 μl of master mix plus 1 μl of compound or control. Reactions were incubated for 3 hours at room temperature (21° C.) in the dark. Aliquots of the reactions (20 μl) were resolved on a 0.8% TAE agarose gel with 1/20,000 SYBR Safe stain electrophoresed at 80V for 90 minutes. The gel was visualized on a ChemidocMP in fluorescein blot mode.

[1] = target: purified capsid protein assembly domain, Cp149 (Hepatitis B virus subtype adyw, UniProt P03147); assay: Capsid assembly assay (size exclusion chromatography); format: biochemical, HBV; settings: 10 μM Cp149 dimer, 20 μM compound, 24 h at room temperature, versus capsid control
purified capsid protein assembly domain, Cp149, sequence (P03147 1-149): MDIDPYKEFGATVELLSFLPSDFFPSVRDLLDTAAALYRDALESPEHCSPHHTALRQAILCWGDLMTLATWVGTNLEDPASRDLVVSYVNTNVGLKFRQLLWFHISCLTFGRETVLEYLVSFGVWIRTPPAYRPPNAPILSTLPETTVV
Method: Stimulation of HBV virus assembly is a known property of CAM molecules. As structural changes can have unpredictable effects on function, a capsid assembly assay was conducted with exemplary rCAM DP41-0012 to evaluate whether the construct retained CAM activity. Relative peak HBV capsid volume following exposure to the exemplary rCAM was determined in comparison to dimer, DMSO, and capsid controls, along with CAM compounds bersacapavir and NVR-3-778.
To test capsid assembly, samples or controls were incubated for 20 minutes with purified capsid protein assembly domain, Cp149, so that final conditions were 10 μM Cp149 dimer 20 μM compound or control 2% DMSO 50 mM TrisHCl pH 7.5. To this mixture was added an equal volume of 600 mM NaCl 50 mM TrisHCl pH 7.5. Reactions were equilibrated for 24 h at room temperature and the resolved by size exclusion chromatography using a 10/300 Superose6 column running at 0.5 ml/minute. The running buffer for this column was 50 mM TrisHCl 300 mM NaCl. Elution profiles were recorded by absorbance at 280 nm. Integrated capsid peaks eluting between 16 and 20 minutes and dimer peaks eluting between 34 and 39 minutes were reported.

Cp149 dimers = Cp149 dimers (Hepatitis B virus subtype adyw, UniProt P03147); assay: Cp149 dimer assembly with rCAM visualized by transmission electron microscopy; format: biochemical, HBV; settings: dimer:rCAM 1:5, NaCl 300 mM, overnight at 25° C.
Cp149 dimers, sequence (P03147 1-149): as above
Method: Cp dimers were assembled with HAP-PEG2-CBL and HAP-PEG4-CBL to verify the HAP backbone's ability to bind the dimer-dimer interface. Cp149 dimers were mixed with each rCAM in a 1:5 ratio (dimer:rCAM). Assembly was induced by addition of NaCl (300 mM) followed by incubation overnight at 25° C. Assembly products were visualized via transmission electron microscopy (TEM) (FIG. 10). Assembly in NaCl alone led to normal spherical capsids (FIG. 10A). […] Boume, C., et al., J Virol 82:10262, 2008.

[2] = test system: in vitro transcribed pregenomic HBV RNA (pgRNA); assay: pgRNA activity assay by denaturing agarose gel electrophoresis; format: biochemical; settings: for RNA signal on gel, free pgRNA: 100 μM; for RNA signal on gel, free pgRNA / RNA bands on gel, free pgRNA: 1% or 10% DMSO; for RNA bands on gel, free pgRNA / pgRNA band on denaturing agarose gel: 900 μM; for pgRNA band on denaturing agarose gel: 1 hour
[3] = test system: in vitro transcribed pregenomic HBV RNA (pgRNA); format: biochemical; settings: for effect on pgRNA amplification / RNA transcription (RT-qPCR, Cp gene): either temperature (25° C. or 37° C.)
[4] = 25° C. and 37° C. (both temperature conditions)

## Cn1cc(S(=O)(=O)NCCNC(=O)c2cc(O)c(O)c(O)c2)cc1C(=O)Nc1ccc(F)c(C#N)c1 [DP41-0012, N-(3-cyano-4-fluorophenyl)-1-methyl-4-(N-(2-(3,4,5-trihydroxybenzamido)ethyl)-sulfamoyl)-1H-pyrrole-2-carboxamide]
Supercoiled plasmid
  plasmid DNA form seen on agarose gel (dsDNA nicking activity): DNA band corresponding to the size of a nicked circle
[1]
  relative peak capsid volume: exceeded that of the capsid control

## COC(=O)C1=C(CN2CCN(C(=O)CCOCCOCCOC(=O)CCCc3ccc(N(CCCl)CCCl)cc3)CC2)NC(c2ccccn2)=NC1c1ccc(F)cc1Cl (stereo not drawn) [HAP-PEG2-CBL, Methyl 6-((4-(3-(2-(2-((4-(4-(bis(2-chloroethyl)amino)phenyl)butanoyl)oxy)ethoxy)ethoxy)propanoyl)piperazin-1-yl)methyl)-4-(2-chloro-4-fluorophenyl)-2-(pyridin-2-yl)-1,4-dihydropyrimidine-5-carboxylate]
Cp149 dimers
  assembly products seen by TEM: both spherical capsids, faceted/broken capsids, and flat, aberrant structures
[2]; 37° C.
  RNA signal on gel, free pgRNA: slight reduction in RNA signal
  RNA bands on gel, free pgRNA: almost complete dissipation of RNA bands

## COC(=O)C1=C(CN2CCN(C(=O)CCOCCOCCOCCOCCOC(=O)CCCc3ccc(N(CCCl)CCCl)cc3)CC2)NC(c2ccccn2)=NC1c1ccc(F)cc1Cl (stereo not drawn) [HAP-PEG4-CBL]
Cp149 dimers
  assembly products seen by TEM: floret-shaped, aberrant particles
[2]; 37° C.
  RNA signal on gel, free pgRNA: slight reduction in RNA signal
  RNA bands on gel, free pgRNA: almost complete dissipation of RNA bands

## O=C(Nc1cc(F)c(F)c(F)c1)c1ccc(F)c(S(=O)(=O)N2CCC(O)CC2)c1 [NVR-3-778]
Supercoiled plasmid
  plasmid DNA form seen on agarose gel (dsDNA nicking activity): supercoiled plasmid substrate was detectable

## CN(C)c1nc(N(C)C)nc(N(C)C)n1 [altretamine]
[3]; 900 μM, 1 hour
  effect on pgRNA amplification / RNA transcription (RT-qPCR, Cp gene): does affect RNA transcription

## C[C@H](NS(=O)(=O)c1cc(C(=O)Nc2ccc(F)c(C#N)c2)n(C)c1)C(F)(F)F [bersacapavir]
Supercoiled plasmid
  plasmid DNA form seen on agarose gel (dsDNA nicking activity): supercoiled plasmid substrate was detectable

## O=C(O)CCCc1ccc(N(CCCl)CCCl)cc1 [chlorambucil]
[3]; 900 μM, 1 hour, 25° C.
  reduction in RNA amplification (RT-qPCR, Cp gene): approximately 1 log
[3]; 900 μM, 1 hour, 37° C.
  decrease in RNA levels (RT-qPCR, Cp gene): 4 log
[2]; [4]
  pgRNA band on denaturing agarose gel: completely dissipate RNA

## N.N.[Cl][Pt][Cl] [cisplatin]
[3]
  decrease in RNA levels (RT-qPCR, Cp gene): 3 log
  reduction in RNA amplification (RT-qPCR, Cp gene): approximately 1 log
[2]; [4]
  pgRNA band on denaturing agarose gel: faster migrating and smeared bands

## CO[C@@]12[C@H](COC(N)=O)C3=C(C(=O)C(C)=C(N)C3=O)N1C[C@@H]1N[C@@H]12 [mitomycin C]
[3]; 900 μM, 1 hour
  effect on pgRNA amplification / RNA transcription (RT-qPCR, Cp gene): does affect RNA transcription

## phleomycin
[3]; 900 μM, 1 hour
  effect on pgRNA amplification / RNA transcription (RT-qPCR, Cp gene): does not suppress pgRNA amplification appreciably
[2]; 37° C.
  pgRNA band on denaturing agarose gel: completely disappeared
[2]; room temperature (25° C.)
  pgRNA band on denaturing agarose gel: reduced in width

Source: patent US20260284203A1 (priority 2023, published 2026)
